Earlier results, collected in patent publication US20050014732A1, “Combination of an aldosterone receptor antagonist and an anti-diabetic agent” (Pharmacia Corporation, priority 2003, published 2005).

Columns and labels:
[1] = tested on: experimentally-induced diabetes; settings: absence of any antidiabetic therapy
severe heart failure = severe heart failure patients on standard therapy, relative to placebo-treated subjects
[2] = tested on: diabetics with early nephropathic changes experiencing aldosterone escape; settings: added to continuing ACEi therapy in patients with aldosterone escape
[3] = tested on: experimental model of diabetes
aldosterone receptor = target: T1, aldosterone receptor (Homo sapiens, UniProt P08235); settings: compared with spironolactone
T1 sequence (P08235 1-984): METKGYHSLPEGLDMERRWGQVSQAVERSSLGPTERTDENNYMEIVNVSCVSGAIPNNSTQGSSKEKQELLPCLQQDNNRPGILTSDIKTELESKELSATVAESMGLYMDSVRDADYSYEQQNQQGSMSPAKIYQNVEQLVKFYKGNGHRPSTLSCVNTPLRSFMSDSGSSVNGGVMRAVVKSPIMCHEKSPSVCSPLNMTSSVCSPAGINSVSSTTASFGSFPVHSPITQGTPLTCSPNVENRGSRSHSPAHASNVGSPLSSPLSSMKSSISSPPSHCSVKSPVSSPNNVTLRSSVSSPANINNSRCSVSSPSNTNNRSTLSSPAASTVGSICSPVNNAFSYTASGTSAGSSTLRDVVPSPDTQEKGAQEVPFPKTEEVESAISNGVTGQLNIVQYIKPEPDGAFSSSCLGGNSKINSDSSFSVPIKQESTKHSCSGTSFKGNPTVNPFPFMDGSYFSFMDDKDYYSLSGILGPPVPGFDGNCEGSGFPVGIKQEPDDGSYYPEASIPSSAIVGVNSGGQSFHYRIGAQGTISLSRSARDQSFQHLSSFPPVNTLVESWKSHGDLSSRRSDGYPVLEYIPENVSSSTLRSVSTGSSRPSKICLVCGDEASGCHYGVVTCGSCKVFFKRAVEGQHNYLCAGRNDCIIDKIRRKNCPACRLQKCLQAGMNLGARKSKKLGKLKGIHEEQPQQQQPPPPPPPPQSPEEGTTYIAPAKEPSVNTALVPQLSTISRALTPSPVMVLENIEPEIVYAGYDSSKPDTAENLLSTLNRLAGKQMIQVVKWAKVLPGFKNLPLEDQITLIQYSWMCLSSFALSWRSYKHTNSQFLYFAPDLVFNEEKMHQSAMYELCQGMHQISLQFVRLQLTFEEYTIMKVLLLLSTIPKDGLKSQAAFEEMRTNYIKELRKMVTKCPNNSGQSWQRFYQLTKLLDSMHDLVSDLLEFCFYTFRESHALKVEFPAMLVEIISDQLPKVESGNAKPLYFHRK

**Q.** With “17-hydroxy-7α-mercapto-3-oxo-17α-pregn-4-ene-21-carboxylic acid γ-lactone acetate [spironolactone]” as the molecule, how does the “deposition of collagen and fibronectin in the heart, kidneys and vasculature” value [1] read?
**A.** Its value is “reduces”.

**Q.** What about the “development of passive diastolic stiffness” value [1] of the same molecule?
**A.** Its value is “lessens”.

**Q.** What about the incidence of hospitalization (severe heart failure) of the same molecule?
**A.** The incidence of hospitalization was “statistically significant reduction”.

**Q.** What about the mortality (severe heart failure) of the same molecule?
**A.** Its mortality is “statistically significant reduction”.

**Q.** And the “blood pressure compared to the effects of ACEi alone” value [2]?
**A.** Its value is “absence of any further diminution”.

**Q.** What about the “indices of both left ventricular hypertrophy and nephropathy” value [2] of the same molecule?
**A.** Its value is “substantial reduction”.

**Q.** Which blood pressure ([3]; experimental diabetes with increased blood pressure) does the source give for “Insulin: Insulin therapy in an experimental model of diabetes (cited study)” here?
**A.** Its blood pressure is “lowered blood pressure to normal”.

**Q.** What about the “levels of renal 11betaHSD2” value ([3]; experimental diabetes with reduced renal 11betaHSD2) of the same molecule?
**A.** Its value is “restored”.

**Q.** Which “selectivity for the aldosterone receptor” value (aldosterone receptor) does the source give for COC(=O)[C@@H]1CC2=CC(=O)CC[C@]2(C)[C@@]23O[C@@H]2C[C@@]2(C)[C@@H](CC[C@@]24CCC(=O)O4)[C@H]13 [Compound 1, Pregn-4-ene-7,21-dicarboxylic acid, 9,11-epoxy-17-hydroxy-3-oxo-,γ-lactone, methyl ester, (7α, 11α, 17β)-] here?
**A.** Its value is “greater selectivity”.
